Where two headings read alike, the source gives them in different places.
How the values were obtained:
[1] = molecular target: FLNA pentapeptide of SEQ ID NO: 1 (Bn-VAKGL) (Homo sapiens, UniProt P21333); experiment: FITC-NLX-based FLNA screening assay (inhibition of FITC-naloxone binding to Bn-VAKGL on streptavidin plates); conditions: for inhibition at 0.01 µM / inhibition at 0.1 µM / inhibition at 1 µM: 10 nM FITC-NLX
[2] = tested on: mu opiate receptor (MOR); experiment: MOR agonist activity using [35S]GTPγS binding assay in striatal membranes; format: biochemical; conditions: for MOR agonist activity ([35S]GTPγS binding), FLNA-Binding Compound as Agonist 1 μM + BFNA: 1 μM compound + 1 μM β-funaltrexamine
Experimental: To assess the mu opiate receptor (MOR) agonist activity of positive compounds from the FLNA screening, compounds were tested in a [^35S]GTPγS binding assay using striatal membranes. […] This assay measures a functional consequence of receptor occupancy at one of the earliest receptor-mediated events. The assay permits traditional pharmacological parameters of potency, efficacy and antagonist affinity, with the advantage that agonist measures are not subjected to amplification or other modulation that may occur when analyzing parameters further downstream of the receptor.
Thus, striatal tissue was homogenized in 10 volumes of ice cold 25 mM HEPES buffer, pH 7.4, which contained 1 mM EGTA, 100 mM sucrose, 50 μg/ml leupeptin, 0.04 mM PMSF, 2 μg/ml soybean trypsin inhibitor and 0.2% 2-mercaptoethanol. The homogenates were centrifuged at 800×g for 5 minutes and the supernatants were centrifuged at 49,000×g for 20 minutes. The resulting pellets were suspended in 10 volume of reaction buffer, which contained 25 mM HEPES, pH 7.5, 100 mM NaCl, 50 μg/ml leupeptin, 2 μg/ml soybean trypsin inhibitor, 0.04 mM PMSF and 0.02% […].
The resultant striatal membrane preparation (200 μg) was admixed and maintained (incubated) at 30° C. for 5 minutes in reaction buffer as above that additionally contained 1 mM MgCl2 and 0.5 nM [^35S]GTPγS (0.1 μCi/assay, PerkinElmer Life and Analytical Sciences) in a total volume of 250 μl and continued for 5 minutes in the absence or presence of 0.1-10 μM of an assayed compound of interest. The reaction was terminated by dilution with 750 μl of ice-cold reaction buffer that contained 20 mM MgCl2 and 1 mM EGTA and immediate centrifugation at 16,000×g for 5 minutes.
The resulting pellet was solubilized by sonicating for 10 seconds in 0.5 ml of immunoprecipitation buffer containing 0.5% digitonin, 0.2% sodium cholate and 0.5% NP-40. Normal rabbit serum (1 μl) was added to 1 ml of lysate and incubated at 25° C. for 30 minutes. Nonspecific immune complexes were removed by incubation with 25 μl of protein A/G-conjugated agarose beads at 25° C. for 30 minutes followed by centrifugation at 5,000×g at 4° C. for 5 minutes. The supernatant was divided and separately incubated at 25° C. for 30 minutes with antibodies raised against Gαo proteins (1:1,000 dilutions).
The immunocomplexes so formed were collected by incubation at 25° C. for 30 minutes with 40 μl of agarose-conjugated protein A/G beads and centrifugation at 5,000×g at 4° C. for 5 minutes. The pellet was washed and suspended in buffer containing 50 mM Tris-HCl, pH 8.0, and 1% NP-40. The radioactivity in the suspension was determined by liquid scintillation spectrometry.

[3] = FLNA-binding compound 0.01 μM, read-out: Percent Binding Inhibition
[4] = FLNA-binding compound 0.1 μM, read-out: Percent Binding Inhibition
[5] = FLNA-binding compound 1 μM, read-out: Percent Binding Inhibition
[6] = 0.1 μM compound relative to DAMGO
[7] = 1 μM compound + BFNA relative to DAMGO + BFNA
[8] = 1 μM compound relative to DAMGO
[9] = read-out: Percent Binding Inhibition, FLNA-binding compound 0.01 μM
[10] = read-out: Percent Binding Inhibition, FLNA-binding compound 0.1 μM
[11] = read-out: Percent Binding Inhibition, FLNA-binding compound 1 μM
[12] = Series C-1, 0.1 μM compound, relative to DAMGO
[13] = Series C-1, 0.1 μM compound, [35S]GTPγS binding to Gαo, striatal membranes
[14] = Series C-1, 1 μM compound + 1 μM β-FNA
[15] = Series C-1, 1 μM compound + β-FNA, relative to DAMGO + BFNA
[16] = Series C-1, 1 μM compound, relative to DAMGO
[17] = Series C-1, 1 μM compound, [35S]GTPγS binding to Gαo, striatal membranes

## CC1CCC(C(C)C)C(OCC(O)CN2CCSC2)C1 (centres unmarked) [Compound A0002]
[1]; [3]
  inhibition at 0.01 µM: 38.7%
[1]; [4]
  inhibition at 0.1 µM: 43.7%
[1]; [5]
  inhibition at 1 µM: 49.9%
[2]; 0.1 μM compound
  MOR agonist activity ([35S]GTPγS binding), FLNA-Binding Compound as Agonist 0.1 μM: 155.6%
[2]; [6]
  % DAMGO (0.1 μM): 104.1%
[2]; 1 μM compound
  MOR agonist activity ([35S]GTPγS binding), FLNA-Binding Compound as Agonist 1 μM: 199.4%
[2]
  MOR agonist activity ([35S]GTPγS binding), FLNA-Binding Compound as Agonist 1 μM + BFNA: 6.5%
[2]; [7]
  % DAMGO + BFNA: 24.5%
[2]; [8]
  % DAMGO (1 μM): 86.6%

## COc1ccc(C(=O)CC2c3c(cc4c(c3OC)OCO4)CC[N+]2(C)C)c(O)c1 (centres unmarked) [Compound B0033]
[1]; [9]
  inhibition at 0.01 µM: 42.1%
[1]; [10]
  inhibition at 0.1 µM: 46.8%
[1]; [11]
  inhibition at 1 µM: 49.4%
[2]; Series B, 0.1 μM compound, relative to DAMGO
  % DAMGO (0.1 μM): 77.6%
[2]; Series B, 0.1 μM compound, [35S]GTPγS binding to Gαo, striatal membranes
  MOR agonist activity, percent [35S]GTPγS binding at the stated compound concentration: 149.3%
[2]; Series B, 1 μM compound + 1 μM β-FNA
  MOR agonist activity, percent [35S]GTPγS binding at the stated compound concentration: 41.9%
[2]; Series B, 1 μM compound + β-FNA, relative to DAMGO + BFNA
  % DAMGO + BFNA: 95.4%
[2]; Series B, 1 μM compound, relative to DAMGO
  % DAMGO (1 μM): 69.2%
[2]; Series B, 1 μM compound, [35S]GTPγS binding to Gαo, striatal membranes
  MOR agonist activity, percent [35S]GTPγS binding at the stated compound concentration: 188.9%

## CS(=O)(=O)c1ccc(S(=O)(=O)N2CCOC23CCN(CC2CC2)CC3)cc1 [Compound C0126M]
[1]; [3]
  inhibition at 0.01 µM: 50.7%
[1]; [4]
  inhibition at 0.1 µM: 55.4%
[1]; [5]
  inhibition at 1 µM: 67.3%
[2]; Series C-2, 0.1 μM compound, relative to DAMGO
  % DAMGO (0.1 μM): 108.5%
[2]; Series C-2, 0.1 μM compound, [35S]GTPγS binding to Gαo, striatal membranes
  MOR agonist activity, percent [35S]GTPγS binding at the stated compound concentration: 181.8%
[2]; Series C-2, 1 μM compound + 1 μM β-FNA
  MOR agonist activity, percent [35S]GTPγS binding at the stated compound concentration: 108.5%
[2]; Series C-2, 1 μM compound + β-FNA, relative to DAMGO + BFNA
  % DAMGO + BFNA: 228.4%
[2]; Series C-2, 1 μM compound, relative to DAMGO
  % DAMGO (1 μM): 119.3%
[2]; Series C-2, 1 μM compound, [35S]GTPγS binding to Gαo, striatal membranes
  MOR agonist activity, percent [35S]GTPγS binding at the stated compound concentration: 265.3%

## CC(C)c1ccc(S(=O)(=O)N2CCC3(CC2)OCCN3S(=O)(=O)c2ccc(C(C)C)cc2)cc1 [Compound C0007]
[1]; [9]
  inhibition at 0.01 µM: 40.5%
[1]; [10]
  inhibition at 0.1 µM: 46.3%
[1]; [11]
  inhibition at 1 µM: 48.9%
[2]; [12]
  % DAMGO (0.1 μM): 46.0%
[2]; [13]
  Concentration of FLNA-Binding Compound as Agonist 0.1 μM: 79.1%
[2]; [14]
  Concentration of FLNA-Binding Compound as Agonist 1 μM + BFNA: 10.9%
[2]; [15]
  % DAMGO + BFNA: 17.0%
[2]; [16]
  % DAMGO (1 μM): 70.5%
[2]; [17]
  Concentration of FLNA-Binding Compound as Agonist 1 μM: 195.0%

## CC1CCC(C(C)C)C(OCC(O)CN2CCCCC2C)C1 (centres unmarked) [Compound A0007]
[1]; [9]
  inhibition at 0.01 µM: 39.2%
[1]; [10]
  inhibition at 0.1 µM: 46.2%
[1]; [11]
  inhibition at 1 µM: 52.9%
[2]; 0.1 μM compound
  MOR agonist activity ([35S]GTPγS binding), FLNA-Binding Compound as Agonist 0.1 μM: 102.0%
[2]; [6]
  % DAMGO (0.1 μM): 68.3%
[2]; 1 μM compound
  MOR agonist activity ([35S]GTPγS binding), FLNA-Binding Compound as Agonist 1 μM: 221.9%
[2]
  MOR agonist activity ([35S]GTPγS binding), FLNA-Binding Compound as Agonist 1 μM + BFNA: 40.4%
[2]; [7]
  % DAMGO + BFNA: 152.5%
[2]; [8]
  % DAMGO (1 μM): 96.4%

## O=S(=O)(c1cccs1)N1CCC2(CC1)OCCN2S(=O)(=O)c1cccs1 [Compound C0141M]
[1]; [9]
  inhibition at 0.01 µM: 33.1%
[1]; [10]
  inhibition at 0.1 µM: 39%
[1]; [11]
  inhibition at 1 µM: 46.9%
[2]; [12]
  % DAMGO (0.1 μM): 109.9%
[2]; [13]
  Concentration of FLNA-Binding Compound as Agonist 0.1 μM: 161.5%
[2]; [14]
  Concentration of FLNA-Binding Compound as Agonist 1 μM + BFNA: 47.9%
[2]; [15]
  % DAMGO + BFNA: 121.9%
[2]; [16]
  % DAMGO (1 μM): 105.8%
[2]; [17]
  Concentration of FLNA-Binding Compound as Agonist 1 μM: 213.9%

## COc1ccccc1S(=O)(=O)N1CCC2(CC1)OCCN2S(=O)(=O)c1ccccc1OC [Compound C0003]
[1]; [9]
  inhibition at 0.01 µM: 38.3%
[1]; [10]
  inhibition at 0.1 µM: 45.3%
[1]; [11]
  inhibition at 1 µM: 48.8%
[2]; [12]
  % DAMGO (0.1 μM): 91.9%
[2]; [13]
  Concentration of FLNA-Binding Compound as Agonist 0.1 μM: 162.3%
[2]; [14]
  Concentration of FLNA-Binding Compound as Agonist 1 μM + BFNA: 107.7%
[2]; [15]
  % DAMGO + BFNA: 163.9%
[2]; [16]
  % DAMGO (1 μM): 83.3%
[2]; [17]
  Concentration of FLNA-Binding Compound as Agonist 1 μM: 215.9%

## O=S(=O)(c1ccc(OC(F)(F)F)cc1)N1CCOC12CCN(CC1CC1)CC2 [Compound 4]
[1]; preliminary study
  Binding to FLNA (conclusion in words): bound well to FLNA
[2]; 0.1 μM, average of two runs
  MOR agonist activity, FLNA-Binding Compound as Agonist 0.1 μM (preliminary study): 133.9%
[2]; 1 μM + βNFA, average of two runs
  MOR agonist activity, FLNA-Binding Compound as Agonist 1 μM + βNFA (preliminary study): 49.5%
[2]; 1 μM, average of two runs
  MOR agonist activity, FLNA-Binding Compound as Agonist 1 μM (preliminary study): 165.2%
[2]; preliminary study
  MOR agonist activity (conclusion in words): not as potent a MOR agonist

From patent publication US10363239B2, “Method for inhibiting growth of cancer cells” (Pain Therapeutics, Inc., priority 2013, dated 2019)
